Read-outs that look alike come from different tables or passages of the source.
How the values were obtained:
[1] = system: anti-influenza virus memory CTLs (FluMPA2.1); assay type: cell-based, human
[2] = system: HLA-A2.1-having EBV transformed B-cells (221A2.1); settings: for Cytotoxic Activity (%) E/T Ratio 2.5 / Cytotoxic Activity (%) E/T Ratio 5 / Cytotoxic Activity (%) E/T Ratio 10: FluMPA2.1
[3] = system: HLA-A2.1-having EBV transformed B-cells (221A2.1); settings: FluMPA2.1
[4] = Example 1-4, sample 10 μg/ml during CTL induction +, during culture with IL-2 +, peptide addition +
[5] = Example 1-4, sample 10 μg/ml during CTL induction +, during culture with IL-2 +, peptide addition −
[6] = Example 2-4, sample 10 μg/ml during CTL induction +, during expansion +, peptide addition +
[7] = Example 2-4, sample 10 μg/ml during CTL induction +, during expansion +, peptide addition −
[8] = Example 2-6, sample during CTL induction −, during expansion + (10 μg/ml), peptide addition +
[9] = Example 2-6, sample during CTL induction −, during expansion + (10 μg/ml), peptide addition −

## sodium chondroitin sulfate B
[1]; Example 2-4, sample 10 μg/ml during CTL induction +, during expansion +
  Expansion Ratio: × 178
[1]; Example 2-6, sample during CTL induction −, during expansion + (10 μg/ml)
  Expansion Ratio: × 383
[2]; [4]
  Cytotoxic Activity (%) E/T Ratio 2.5: 28.1%
  Cytotoxic Activity (%) E/T Ratio 5: 38.1%
  Cytotoxic Activity (%) E/T Ratio 10: 60.7%
[2]; [5]
  Cytotoxic Activity (%) E/T Ratio 2.5: 0%
  Cytotoxic Activity (%) E/T Ratio 5: 0%
  Cytotoxic Activity (%) E/T Ratio 10: 0.8%
[2]; Example 1-5, sample during CTL induction −, during culture with IL-2 + (10 μg/ml), peptide addition +
  Cytotoxic Activity (%) E/T Ratio 10: 24.0%
[2]; Example 1-5, sample during CTL induction −, during culture with IL-2 + (10 μg/ml), peptide addition −
  Cytotoxic Activity (%) E/T Ratio 10: 4.6%
[2]; sample 10 μg/ml during CTL induction and during continuous culture, 10 to 14 days
  cytotoxic activity after continuous culture (in words): effects for maintaining cytotoxic activity
[2]; sample 10 μg/ml only during continuous culture
  cytotoxic activity after continuous culture (in words): maintaining an antigen-specific cytotoxic activity
[3]; [6]
  Cytotoxic Activity (%) E/T Ratio 3: 57.8%
  Cytotoxic Activity (%) E/T Ratio 10: 98.2%
[3]; [7]
  Cytotoxic Activity (%) E/T Ratio 3: 1.0%
  Cytotoxic Activity (%) E/T Ratio 10: 10.7%
[3]; [8]
  Cytotoxic Activity (%) E/T Ratio 1: 15.2%
  Cytotoxic Activity (%) E/T Ratio 3: 27.2%
  Cytotoxic Activity (%) E/T Ratio 10: 48.1%
  Cytotoxic Activity (%) E/T Ratio 30: 76.2%
[3]; [9]
  Cytotoxic Activity (%) E/T Ratio 1: 3.9%
  Cytotoxic Activity (%) E/T Ratio 3: 4.4%
  Cytotoxic Activity (%) E/T Ratio 10: 8.3%
  Cytotoxic Activity (%) E/T Ratio 30: 11.8%

From patent US7816134B2, “Method of extensive culture of antigen-specific cytotoxic T cells” (Takara Bio Inc., priority 2000, dated 2010)
